The text below walks through data of patent US20150018411A1, “COMPOUNDS AS PPAR BETA/DELTA INHIBITORS FOR TREATING PPAR BETA/DELTA-MEDIATED DISEASES” (PHILIPPS-UNIVERSITAT MARBURG, priority 2011, published 2015).

One test deals with ANGPTL4 gene expression. The experiment in a line: ANGPTL4 gene expression (qPCR) in WPMY-1 myofibroblasts. In kind it is cell-based, human. The conditions noted are these: WPMY-1, 1 μM, 24 hours, compared to DMSO-treated cells. The method, then: FIG. 5: Influence of the substances of this invention comparative compound (CC) 2, compound 1, compound 5, compound 2 and compound 3 on ANGPTL4 gene expression. • (A) Comparison of relative ANGPTL4 expression, (B) mean inhibitory concentration of substances of this invention. (A) Human myofibroblasts (WPMY-1) are treated for 24 hours with the substances of this invention (1 μM), then RNA is isolated, the cDNA synthesized and analyzed by qPCR, normalized to L27 gene expression. (B) Titration of the effect of substances of this invention on the endogenous ANGPTL4 expression in WPMY-1 cells (left) or peritoneal mouse macrophages (right) after cells have been treated for six hours with the substances of this invention compound 1 and compound 2, respectively; RNA isolation, cDNA synthesis and qPCR as described for (A). The relative expression is calculated in relation to DMSO-treated cells. All values are average values of triplicates (+1-standard deviation). Asterisks (***, **, *) indicate significant differences to DMSO-treated cells (***: p<0.001 after t-test; *: p <0.05).
The influence of substances of this invention on PPAR-beta/delta regulated genes like for example ANGPTL4 which codes for the angiopoietin-like protein ANGPTL4 is assessed in different cells with a confluence of 70% to 80% in a 6-well cell culture plate. For this purpose, cultivated human myofibroblasts (WPMY-1), peritoneal mouse macrophages or cells of the human breast cancer cell line MDA-MB-231 are treated for 24 hours with 1 μM of the substances of this invention. Cells of the breast cancer cell line are in addition stimulated for 6 hours with TGF-beta2 (2 ng/ml) which is commercially available. Subsequently, RNA is isolated from the cells by procedures known to the expert and analyzed by quantitative PCR (qPCR, real time qPCR, RT-qPCR) also known to those skilled in the art. […]

In test [1] the target is T1, GST-PPAR beta/delta LBD (Homo sapiens, UniProt Q03181).
T1 construct: GST-PPAR beta/delta LBD (GST=glutathione S-transferase); purchased Invitrogen, Darmstadt, Germany
T1 sequence (Q03181 211-439 limits assumed): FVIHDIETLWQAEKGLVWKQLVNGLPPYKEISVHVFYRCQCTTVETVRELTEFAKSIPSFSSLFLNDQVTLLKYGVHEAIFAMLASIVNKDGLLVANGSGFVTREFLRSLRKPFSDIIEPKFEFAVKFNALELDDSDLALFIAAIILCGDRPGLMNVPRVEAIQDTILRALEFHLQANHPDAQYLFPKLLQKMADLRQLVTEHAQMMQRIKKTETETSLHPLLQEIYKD
Kind of test: Ligand-induced binding of corepressor peptide SMRT-ID2, TR-FRET. As to conditions: concentration dependent. In kind it is biochemical. The method, then:
FIG. 2: Induction of corepressor peptide binding to GST-PPAR beta/delta ligand binding domain (LBD) in vitro in dependency of the concentration of the substances of this invention comparative compound (CC) 2, compound 1 (A), compound 2 (B), compound 3 (C), compound 4 (D) and compound 5 (E). The interaction of fluorescein-labeled SMRT-ID2 peptide with recombinant GST-PPAR beta/delta LBD bound to a terbium-labeled anti-GST antibody is determined by TR-FRET analysis. Shown is the ratio of fluorescence intensity at 520 nm (fluorescein emission, excited by terbium emission) and 495 nm (terbium emission). All data points represent average values of triplicates (+/−standard deviation).
B) The ligand-induced binding of the commercially available fluorescein-labeled corepressor peptide SMRT-ID2 ([…]) (Invitrogen, Darmstadt, Germany) to GST-PPAR beta/delta is for example measured by TR-FRET analysis using a terbium-labeled anti-GST antibody in a VICTOR3V Multilabel Counter (WALLAC 1420; PerkinElmer Life and Analytical Sciences, Rodgau, Germany). The measurement is performed in a buffer composed of 100 mM KC, 20 mM Tris pH 7.9, 0.01% Triton X100 and 1 μg/μL bovine serum albumin.
(TR-FRET usually uses a lanthanide donor and a delayed reading to cut background.)

Test [2] has as its target T1, GST-PPAR beta/delta LBD. The experiment in a line: Competitive in vitro ligand binding, TR-FRET, displacement of Fluormone Pan-PPAR-Green. As to conditions: fluorescence ratio 520 nm/495 nm. How it is done:
FIG. 1: Competitive in vitro ligand binding to PPAR beta/delta. • The displacement of ligand Fluormone® Pan-PPAR Green from recombinant GST-PPAR beta/delta ligand binding domain (LBD) by the substances of the present invention comparative compound (CC) 2, compound 1 (A), compound 2 (B), and compound 3 (C), compound 4 (D), compound 5 (E) is determined by TR-FRET analysis. Shown is the ratio of fluorescence intensity at 520 nm (fluorescein emission, excited by terbium emission) and 495 nm (terbium emission). All data points represent average values of triplicates (+/−standard deviation).
A) Competitive ligand-binding of the substances of this invention was measured in vitro using time-resolved fluorescence resonance energy transfer (TR-FRET) by competition with the commercially available fluorescent Fluormone® Pan-PPAR-Green for binding to the fusion protein GST-PPAR beta/delta LBD (GST=glutathione S-transferase; LBD=ligand binding domain) (Invitrogen, Darmstadt, Germany) in a VICTOR3V Multilabel Counter (WALLAC 1420; PerkinElmer Life and Analytical Sciences, Rodgau, Germany). The measurement was performed in 100 mM KC, 20 mM Tris pH 7.9, 0.01% Triton X100 and 1 μg/μL bovine serum albumin. GST is known to the expert in the field as suitable fusion partner for proteins. For this purpose, the ratio of fluorescence intensities at 520 nm (fluorescein emission excited by terbium emission) and at 495 nm (terbium emission) is determined.

A further test has as its target T2, PPAR beta/delta (Homo sapiens, UniProt Q03181).
T2 construct: expressed in transfected cells; host or cells: WPMY-1 human myofibroblasts, transient transfection with PEI
T2 sequence (Q03181 1-441): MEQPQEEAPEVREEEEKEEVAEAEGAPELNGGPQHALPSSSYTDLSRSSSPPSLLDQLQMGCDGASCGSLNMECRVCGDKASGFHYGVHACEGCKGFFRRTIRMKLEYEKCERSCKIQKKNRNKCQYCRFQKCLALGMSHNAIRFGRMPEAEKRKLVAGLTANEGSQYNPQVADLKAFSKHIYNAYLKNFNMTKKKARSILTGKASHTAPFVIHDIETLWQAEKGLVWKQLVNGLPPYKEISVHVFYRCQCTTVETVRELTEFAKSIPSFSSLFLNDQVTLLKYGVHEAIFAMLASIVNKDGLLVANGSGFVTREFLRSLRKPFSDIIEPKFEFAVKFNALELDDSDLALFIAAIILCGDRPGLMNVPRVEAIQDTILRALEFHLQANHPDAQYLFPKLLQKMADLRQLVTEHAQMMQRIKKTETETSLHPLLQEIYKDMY
The experiment in a line: Agonist-induced transcriptional activity, luciferase reporter in WPMY-1 cells. In kind it is cell-based. As to conditions: human WPMY-1 myofibroblasts, 500 nM substance, 500 nM agonist L165041. How it is done: FIG. 4: Effect of the substances of this invention comparative compound (CC) 2, compound 1, compound 5, compound 2 and compound 3 on the agonist-induced transcriptional activity of PPAR subtypes alpha (A), beta/delta (B) and gamma (C). • WPMY-1 cells are transiently transfected with a luciferase reporter plasmid. Four hours after transfection, cells are treated for 48 hours with the respective antagonist (500 nM), followed by a treatment with 300 nM of PPAR alpha agonist GW7647 (A), 500 nM of PPAR beta/delta agonist L165041 (B) or 300 nM of PPAR gamma agonist GW1929 (C). The relative induction is represented by the luciferase activity of the agonist-treated transfected cells in relation to solvent-treated transfected cells. Asterisks (**, *) indicate significant differences to untreated cells (after t-test; **: p<0.01; *: p<0.05). GW7647 is commercially available from Sigma-Aldrich (Steinheim, Germany). L165041 and GW1929 can be obtained from Biozol (Eching, Germany).
D) The influence of substances of this invention on the agonist-induced transcriptional activity of PPAR subtypes alpha, beta/delta or gamma is determined in WPMY-1 myofibroblasts transfected transiently with a luciferase reporter plasmid (LexA system) using polyethyleneimine (PEI) according to a method known to the expert. As agonists, substances GW7647 for PPAR alpha or L165041 for PPAR beta/delta or GW1929 for PPAR gamma known to the expert are used. WPMY-1 myofibroblast cells are initially cultured for example in a 12-well plate in DMEM medium (DMEM: Dulbecco's Modified Eagle Medium) according to a method known to the expert and to a confluence of 70% to 80%, and subsequently transfected with 2.5 μg of plasmid-DNA containing the luciferase reporter plasmid, expression plasmids for the respective PPAR subtypes and the Renilla-luciferase plasmid pRL-SV40 (Promega, Mannheim, Germany), and 2.5 μl PEI (1:1000 dilution, pH 7). Four hours after transfection, the cells are treated for 48 hours with 500 nM of the substances of this invention, and 24 later with 300 nM (GW7647 or GW1929, respectively) or 500 nM (L165041) of the respective agonist at 37° C. and 5% CO2 in an incubator. The luciferase assay is performed 48 hours after the first treatment according to the commercial method of the “dual-well-system” (pjk GmbH, Kleinblittersdorf, Germany), whereby for a normalization, not only the luciferase-, but also the Renilla activity is measured. Cells are initially lysed for this measurement, and 20 μl of the lysate is transferred into a white 96-well plate (Fisher Scientific, Hamburg, Germany). […] Mean values and standard deviation are calculated from values of three independent measurements.
On the technique in general: A reporter such as luciferase makes a cellular process visible.

Entries after “also recorded” stand apart in the source; their conditions may differ.

On to `COC(=O)c1sccc1S(=O)(=O)Nc1ccc(N2CCOCC2)cc1OC` [comparison compound 2, methyl 3-(N-(2-methoxy-4-morpholinophenyl)sulfamoyl)thiophene-2-carboxylate, reference compound], for which the “reduction of relative expression of the ANGPTL4 gene” value with ANGPTL4 gene expression is “up to 10%”.

Turning to `COC(=O)c1sccc1S(=O)(=O)Nc1ccc(NCc2ccccc2)cc1OC` [compound 4, methyl 3-(N-(4-(benzylamino)-2-methoxyphenyl)sulfamoyl)thiophene-2-carboxylate], the “induction of interaction of PPAR beta/delta LBD with corepressor peptide SMRT-ID2” value on GST-PPAR beta/delta LBD [1] is on record as “clearly demonstrate the interaction; also recorded: induce”. The “competition with Fluormone Pan-PPAR-Green for binding to GST-PPAR beta/delta LBD” value on GST-PPAR beta/delta LBD [2] is “significant competition efficacy; also recorded: significant competition efficiency”.

With `COC(=O)c1sccc1S(=O)(=O)Nc1ccc(NCCC(C)C)cc1OC` [compound 3, methyl 3-(N-(4-(isopentylamino)-2-methoxyphenyl)sulfamoyl)thiophene-2-carboxylate], on GST-PPAR beta/delta LBD [1], the “induction of interaction of PPAR beta/delta LBD with corepressor peptide SMRT-ID2” value is on record as “clearly demonstrate the interaction; also recorded: induce”. The “competition with Fluormone Pan-PPAR-Green for binding to GST-PPAR beta/delta LBD” value at GST-PPAR beta/delta LBD [2] was “significant competition efficacy; also recorded: significant competition efficiency”. The “agonist-induced transcriptional activity of PPAR beta/delta (luciferase induction)” value at PPAR beta/delta was “inhibited in a PPAR subtype-specific manner”.
